The test system of one experiment is MCF7. The experiment is described as follows: Antiproliferative activity against human MCF7 cells after 72 hrs by MTT assay. The experiment is classed as functional, cell-based. Particulars: MCF7, 72 h. Background: Formazan colour is commonly taken as a measure of viable cells.
The test system of a further experiment is SW-620. The experiment is described as follows: Antiproliferative activity against human SW620 cells after 72 hrs by MTT assay. The experiment is classed as functional, cell-based. The note with it: SW-620, 72 h.
A short description of experiment [1]: Antiproliferative activity against human MIAPaCa2 cells after 72 hrs by MTT assay. The experiment is classed as functional, cell-based. Particulars: MIA PaCa-2, 72 h.
In another experiment the test system is HepG2. Briefly: Antiproliferative activity against human HepG2 cells after 72 hrs by MTT assay. The experiment is classed as functional, cell-based. The note with it: HepG2, 72 h.
The test system of a further experiment is HeLa. Briefly: Antiproliferative activity against human HeLa cells after 72 hrs by MTT assay. The experiment is classed as functional, cell-based.
Experiment [2] concerns MCR. Briefly: Antiproliferative activity against human MCR cells after 72 hrs by MTT assay.
The next experiment concerns K562. The experiment is described as follows: Antiproliferative activity against apoptosis-resistant, Philadelphia chromosome-positive human K562 cells after 72 hrs by PrestoBlue colorimetric assay. It is filed as functional, cell-based. Particulars: K562, 72 h.
The test system of another experiment is BJ. Briefly: Antiproliferative activity against human BJ cells after 72 hrs by PrestoBlue colorimetric assay. The experiment is classed as cell-based.
For another experiment, the system named is WI-38. The experiment is described as follows: Antiproliferative activity against human WI38 cells after 72 hrs by MTT assay. The experiment is classed as cell-based. The note with it: Homo sapiens, WI-38, 72 h.
Experiment [3] deals with MCR. Briefly: Antiproliferative activity against human MCR cells after 72 hrs by MTT assay. The experiment is classed as cell-based. Particulars: MCR.

Bounds are passed on as bounds.

In the case of `COCn1c(CC(COCc2ccccc2)COCc2ccccc2)cc(=O)[nH]c1=O`, the IC50 (with MCF7; in the experiment on SW-620; in experiment [1]; with HepG2; in the experiment on HeLa; with MCR [2]) was more than 100 µM each time.

As to `C[Si](C)(C)CCOCn1c(CC(O)(CO)CO)cc(=O)[nH]c1=O`, the concentration for half-maximal inhibition (IC50) (in the experiment on MCF7; with SW-620; in experiment [1]; in the experiment with HepG2; in the experiment on HeLa; in the experiment with MCR [2]) was more than 100 µM in each case.

For `Cc1c(CC(O)COCc2ccccc2)n(COCC[Si](C)(C)C)c(=O)[nH]c1=O` (stereo unspecified), the 50% inhibitory concentration (IC50) (with MCF7; in the experiment on SW-620; in experiment [1]; in the experiment with HepG2; in the experiment with HeLa; with MCR [2]) was more than 100 µM throughout.

Turning to `O=c1cc(CC(O)(COCc2ccccc2)COCc2ccccc2)[nH]c(=O)[nH]1`, the IC50 (in the experiment on MCF7; in the experiment with SW-620; in experiment [1]; in the experiment with HepG2; in the experiment on HeLa; in the experiment with MCR [2]) was more than 100 µM throughout.

With `COCn1c(CC(O)(COCc2ccccc2)COCc2ccccc2)cc(=O)[nH]c1=O`, the half-maximal inhibitory concentration (IC50) (with MCF7; in the experiment on SW-620; in [1]; in the experiment on HepG2; in the experiment with HeLa; with MCR [2]) was more than 100 µM in each case.

As to `COc1cc(CC(O)(COCc2ccccc2)COCc2ccccc2)nc(OC)n1`, the IC50 (in the experiment with MCF7; with SW-620; in experiment [1]; in the experiment on HepG2; in the experiment on HeLa; with MCR [2]) was more than 100 µM throughout.

For the compound `Cc1cn(-c2cc(NC(=O)c3ccc(C)c(Nc4nccc(-c5cccnc5)n4)c3)cc(C(F)(F)F)c2)cn1` [NILOTINIB], the values for the half-maximal inhibitory concentration (IC50) with K562 and with BJ were 2.4 µM and 12.8 µM, respectively.

Turning to `O=c1cc(CC(O)COCc2ccccc2)[nH]c(=O)[nH]1` (stereo unspecified), the concentration for half-maximal inhibition (IC50) (in the experiment on MCF7; in the experiment with SW-620; in experiment [1]; with HepG2; with HeLa; in the experiment with MCR [2]) was more than 100 µM throughout.

For `Cc1c(CC(O)CO)n(COCC[Si](C)(C)C)c(=O)[nH]c1=O` (stereo unspecified), the IC50 (in the experiment on MCF7; in the experiment with SW-620; in [1]; in the experiment with HepG2; in the experiment on HeLa; with MCR [2]) was more than 100 µM each time.

Consider `Cc1c(CC(O)COCc2ccccc2)[nH]c(=O)[nH]c1=O` (stereo unspecified), for which the half-inhibitory concentration (IC50) (with MCF7; in the experiment on SW-620; in experiment [1]; with HepG2; in the experiment with HeLa; in the experiment on MCR [2]) was more than 100 µM in each case.

With `COCn1c(=O)[nH]c(CC(COCc2ccccc2)COCc2ccccc2)c(C)c1=O`, the 50% inhibitory concentration (IC50) in the experiment with MCF7 is 21.6 µM; in the experiment with SW-620, 25.6 µM; in experiment [1], 27.3 µM; in the experiment with HeLa it was 17 µM; in the experiment with WI-38, 19.4 µM.

Take `COc1cc(CC(O)COCc2ccccc2)nc(OC)n1` (stereo unspecified): the IC50 (with MCF7; with SW-620; in experiment [1]; with HepG2; in the experiment with HeLa; in the experiment on MCR [2]) was more than 100 µM throughout.

Regarding `C[Si](C)(C)CCOCn1c(CC(O)CO)cc(=O)[nH]c1=O` (stereo unspecified), the half-maximal inhibitory concentration (IC50) (with MCF7; in the experiment with SW-620; in [1]; in the experiment with HepG2; in the experiment with HeLa; with MCR [2]) was more than 100 µM each time.

As for `COc1cc(CC(COCc2ccccc2)COCc2ccccc2)nc(OC)n1`, the IC50 with MCF7 is 0.3 µM; with SW-620, more than 100 µM; with HepG2 it was 0.3 µM; with HeLa, 3.5 µM; in the experiment with MCR [2], 18.5 µM.

With `COc1nc(CC(O)(COCc2ccccc2)COCc2ccccc2)c(C)c(OC)n1`, the IC50 in experiment [1] turned out to be 6.1 µM.

`C[Si](C)(C)CCOCn1c(CC(O)COCc2ccccc2)cc(=O)[nH]c1=O` (stereo unspecified): the half-inhibitory concentration (IC50) (with MCF7; with SW-620; in experiment [1]; with HepG2; in the experiment with HeLa; in the experiment with MCR [2]) was more than 100 µM throughout.

On to `COc1nc(CC(O)COCc2ccccc2)c(C)c(OC)n1` (stereo unspecified), for which the IC50 (with MCF7; in the experiment on SW-620; in [1]; with HepG2; in the experiment on HeLa; with MCR [3]) was more than 100 µM each time.

As to `O=c1cc(CC(COCc2ccccc2)COCc2ccccc2)[nH]c(=O)[nH]1`, the half-maximal inhibitory concentration (IC50) (in the experiment with MCF7; in the experiment on SW-620; in experiment [1]; in the experiment with HepG2; in the experiment with HeLa; in the experiment on MCR [2]) was more than 100 µM throughout.

With `COCn1c(CC(COCc2ccccc2)COCc2ccccc2)c(C)c(=O)[nH]c1=O`, the half-inhibitory concentration (IC50) in the experiment on MCF7 was 72.6 µM; in the experiment with SW-620 it was 72.1 µM; in experiment [1], 55.9 µM; in the experiment with HeLa it was 29.7 µM; in the experiment with WI-38 it was 30.8 µM.

As for `COCn1c(CC(O)CO)c(C)c(=O)[nH]c1=O` (stereo unspecified), the IC50 (with MCF7; in the experiment with SW-620; in [1]; in the experiment with HepG2; with HeLa; in the experiment with MCR [2]) was more than 100 µM throughout.

For `COCn1c(CC(O)COCc2ccccc2)c(C)c(=O)[nH]c1=O` (stereo unspecified), the IC50 (with MCF7; in the experiment on SW-620; in [1]; in the experiment with HepG2; in the experiment with HeLa; with MCR [2]) was more than 100 µM each time.

Regarding `COCn1c(CC(O)(CO)CO)cc(=O)[nH]c1=O`, the 50% inhibitory concentration (IC50) (in the experiment with MCF7; in the experiment on SW-620; in experiment [1]; in the experiment with HepG2; with HeLa; in the experiment on MCR [2]) was more than 100 µM in each case.

Regarding `C[Si](C)(C)CCOCn1c(CC(O)(COCc2ccccc2)COCc2ccccc2)cc(=O)[nH]c1=O`, the IC50 (with MCF7; in the experiment on SW-620; in experiment [1]; in the experiment on HepG2; in the experiment with HeLa; in the experiment on MCR [2]) was more than 100 µM throughout.

The term IC50 denotes the concentration needed to halve the response being measured. A high value points to weaker potency in that assay.

The record behind these values is ChEMBL document CHEMBL3286303, “Synthesis and in vitro antiproliferative evaluation of novel N-alkylated 6-isobutyl- and propyl pyrimidine derivatives” (Bioorg Med Chem Lett, 2014).
